Test [1] has as its system HL-60. The test is described as follows: Antiproliferative activity against human HL60 cells at up to 100 uM after 48 hrs by MTS assay. It is filed as functional, cell-based.
In a further test the target is Lactoylglutathione lyase (Homo sapiens, UniProt Q04760). The test is described as follows: Inhibition of human recombinant glyoxalase 1 assessed as S-D-lactoylglutathione after 15 mins by spectrophotometric analysis.
Test [2] relates to HL-60. The test is described as follows: Antiproliferative activity against human HL60 cells after 48 hrs by MTS assay. It is filed as functional, cell-based.
In test [3] the test system is HL-60. Nature of the test: Induction of apoptosis in human HL60 cells assessed as nucleosomal DNA fragmentation at up to 100 uM using ethidium bromide staining by agarose gel electrophoresis. As to conditions: TDE = time-dependent effect. It is filed as functional, cell-based.
Test [4] deals with HL-60. The test is described as follows: Antiproliferative activity against human HL60 cells at up to 100 uM by MTS assay. It is filed as functional, cell-based. As to conditions: TDE = time-dependent effect.
Test [5] concerns HL-60. The test is described as follows: Antiproliferative activity against human HL60 cells after 24 hrs by MTS assay. It is filed as functional, cell-based. The settings on record: HL-60, 24 h.
Test [6] relates to HL-60. Nature of the test: Induction of apoptosis in human HL60 cells assessed as nucleosomal DNA fragmentation after 48 hrs using ethidium bromide staining by agarose gel electrophoresis. It is filed as functional, cell-based.

Active and inactive are the calls of the source. The rule behind the calls is not given here.

Sequence of Lactoylglutathione lyase (Q04760 whole entry): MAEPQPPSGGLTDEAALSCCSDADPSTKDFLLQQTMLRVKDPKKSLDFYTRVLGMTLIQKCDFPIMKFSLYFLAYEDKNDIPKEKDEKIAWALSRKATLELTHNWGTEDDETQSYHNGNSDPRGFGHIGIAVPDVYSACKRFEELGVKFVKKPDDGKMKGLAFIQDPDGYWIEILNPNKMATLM

As for `Oc1cc(O)c2cc(O)c(-c3ccc(O)c(O)c3)[o+]c2c1` [CYANIDIN CHLORIDE], the outcome in the test on HL-60 [1] was Active. On Lactoylglutathione lyase, the IC50 came out at 11.7 µM.
Turning to `Oc1cc(O)c2cc(O)c(-c3cc(O)c(O)c(O)c3)[o+]c2c1` [DELPHINIDIN CHLORIDE], the Activity result in the test on HL-60 [2] was “Dose-dependent effect”; in the test on HL-60 [3], “tde”; in the test on HL-60 [4], “tde”; in the test with HL-60 [6], “Dose-dependent effect”. Besides, the IC50 amounted to 40 µM in the test with HL-60 [2] (HL-60, 48 h); 80 µM in the test with HL-60 [5]; 1.9 µM on Lactoylglutathione lyase.
Consider `Oc1ccc(-c2[o+]c3cc(O)cc(O)c3cc2O)cc1` [PELARGONIDIN CHLORIDE], for which, in the test with HL-60 [1], the result was Active. For the same molecule, at Lactoylglutathione lyase, the IC50 was 16.4 µM.

(Values after ChEMBL document CHEMBL1250526, “Delphinidin, a dietary anthocyanidin in berry fruits, inhibits human glyoxalase I” (Bioorg Med Chem, 2010).)
